One assay relates to normal prostate cells. The assay is described as follows: SRB assay, anti-proliferative effect. It is filed as cell-based, human. To be noted: primary prostate cells, compared with CRPC cells, FIG. 1A. Here is the method:
(§1) Two castration-resistant prostate cancer (CRPC) cell lines of PC-3 and DU-145 were cultured in RPMI 1640 medium with 5% FBS (v/v), penicillin (100 units/ml) and streptomycin (100 μg/ml). Cultures were maintained in a 37° C. incubator with 5% CO2, and adherent cultures were passaged using 0.05% trypsin-EDTA when they reached about 80% confluence. Prostate cells were from human tissue samples which were obtained following informed consent of the donors and after full review by the Ethics Review Committee at National Taiwan University Hospital. The prostate specimens were from males by transurethral resection of the prostate. All patients with prostatism histories were diagnosed to have benign prostate hyperplasia by rectal digital examination, transrectal sonography of prostate and urodynamic studies. […] SRB assay is an accurate and reproducible assay based upon quantitative SRB staining of cellular proteins, and the process for SRB assay was performed as follows. […] The absorbance of SRB was measured at a wavelength of 515 nm at the time of p-TSA addition (hereinafter referred to as time zero, TZ), and after additional incubation of DMSO (hereinafter referred to as control growth, CTL) or p-TSA (hereinafter referred to as Tx). The percentage of cell growth inhibition was calculated by the formula of [1−(Tx−TZ)/(CTL−TZ)]×100%. […]

Assay [1] concerns PC-3 cells. The assay is described as follows: colony formation (clonogenic) assay. It is filed as cell-based, human. As to conditions: for IC50: Homo sapiens, PC-3, 240 h, 10 days, FIG. 4F, read-out: IC50, growth inhibition, colony formation assay. Here is the method: To assay the anchorage-dependent clonogenic effect, each individual PC-3 and DU-145 cells (150 cells/well) were seeded in a 6-well plate. After a 10-day treatment with p-TSA, the cell colonies were rinsed with phosphate-buffered saline (PBS), stained with 0.4% (w/v) crystal violet dissolved in 20% methanol, and lysed by 50 mM sodium citrate dissolved in 50% ethanol. The absorbance was read at a wavelength of 595 nm.
To further substantiate the role of Akt, the Myr-Akt overexpressed PC-3 cells were prepared with the method shown as follows. The plasmid encoding Myr-Akt, an N-terminally myristoylation signal-attached Akt, was a gift from Professor Mien-Chie Hung (The University of Texas, M.D. Anderson Cancer Center). For transfection, PC-3 cells were seeded into 60-mm tissue culture dishes with 30% confluence and grown for 24 h to 50-60% confluence. Each dish was washed with serum-free Opti-MEM (Life Technologies), and 2 ml of the serum-free Opti-MEM was then added. Aliquots containing Myr-Akt expression vector or a control plasmid in serum-free Opti-MEM were transfected into cells using Lipofectamine 2000 (Invitrogen) following the manufacturer's instructions. After incubation for 6 h at 37° C., cells were washed with serum-free Opti-MEM and incubated in 10% FBS-containing RPMI-1640 medium for 48 h. The cells were treated with or without p-TSA and then the related analyses were performed. […] Furthermore, the functional rescue of Myr-Akt was determined. […] However, overexpression of Myr-Akt had minimal effect on p-TSA-induced cyclin D1 down-regulation.

The subject of assay [2] is DU-145 cells. The assay is described as follows: SRB assay, anti-proliferative effect. The format is cell-based. To be noted: Homo sapiens; DU-145, SRB assay, FIG. 1A; read-out: IC50, inhibition of cell growth. Here is the method:
as §1

In assay [3] the test system is DU-145 cells. Put plainly: lipid raft isolation (sucrose gradient) and Western blot of raft-associated kinases. The format is cell-based, human. As to conditions: DU-145, 6 mM p-TSA, 2 h. The text has this: (§2) Lipid rafts are plasma membranes of cells containing glycosphingolipids and a number of receptors arranged in specific glycolipoprotein microdomains which serve as organizing centers to gather signaling molecules, membrane fluid and protein trafficking for a variety of cellular processes. […] To examine the effect of lipid raft on p-TSA action, lipid rafts were isolated from whole cells by sucrose gradient fractionation with subsequent analysis of several serine/threonine kinases localization in raft fractions by immunoblotting. The detailed method for lipid raft isolation was performed as follows. Lipid rafts were isolated using lysis conditions and centrifugation on discontinuous sucrose gradients. Briefly, after the treatment of cells with or without p-TSA, the cells were washed with ice-cold PBS and lysed for 30 min on ice with 1% Triton X-100 in TNEV buffer (10 mM Tris-HCl, pH 7.5, 150 mM NaCl, 5 mM EDTA, 1 mM Na3VO4 and 1 mM PMSF). Cells were homogenized with 15 strokes with a Biovision tissue homogenizer. After centrifuging at 200 g for 8 min, the nuclei and cellular debris were pelleted and 400 μl supernatant was mixed with 400 μl 85% (w/v) sucrose in TNEV buffer, and then transferred to the bottom of a Beckman 13×51 mm centrifuge tube. The diluted lysate was overlaid with 2.4 ml 35% (w/v) sucrose in TNEV buffer and finally 1.4 ml 5% (w/v) sucrose in TNEV buffer. The samples were centrifuged in an SW55 rotor at 200,000 g for 18 h at 4° C. in a Beckman Optima L100K ultracentrifuge (Beckman Instruments, Palo Alto, Calif., United States). Then, fractions in each volume of 350 μl were collected from the top gradient. 15 μl of each fraction was subjected to Western blot analysis to determine the location of target proteins in the discontinuous sucrose gradient.

Assay [4] has as its system PC-3 cells. The assay is described as above. The format is cell-based, human. As to conditions: PC-3, 6 mM p-TSA, 2 h.
From the text: as §2

Read-outs that look alike come from different tables or passages of the source.

For `Cc1ccc(S(N)(=O)=O)cc1` [p-TSA, para-toluenesulfonamide], in the assay with normal prostate cells, the “anti-proliferative activity in normal prostate cells” value is listed as “lower anti-proliferative activity”. Besides, the IC50 was 680 ± 20 µM with PC-3 cells [1] (PC-3 overexpressing constitutively active Myr-Akt), 580 ± 20 µM with PC-3 cells [1] (PC-3 without Myr-Akt overexpression) and around 3000 µM with DU-145 cells [2]. The “anti-proliferative effect, clonogenic assay” value in the assay with PC-3 cells [1] (PC-3, 10 days, FIG. 1B) is reported as “long-term anti-proliferative effect”. In addition, the “expressions of raft-associated total and phosphorylated kinases (Akt, mTOR, p70S6K)” value in the assay on DU-145 cells [3] and in the assay on PC-3 cells [4] was “decreased expressions” in each case. The “raft-associated phosphorylated p70S6K expression” value in the assay on DU-145 cells [3] and in the assay on PC-3 cells [4] was “completely abolished” in each case.

The record behind these values is patent publication US20200338028A1, “BENZENESULFONAMIDE DERIVATIVES AND METHOD FOR MODULATING LIPID RAFT” (Gongwin Biopharm Co., Ltd., priority 2017, published 2020).
